Measurements from patent US5942527A, “Hydrazones, hydrazines, semicarbazones and thiosemicarbazones derived from pyridyl ketones as anticonvulsant drugs and excitatory amino acid antagonists” (K & K Biosciences, Inc., priority 1997, dated 1999).
Structures can show the parent of a compound that is named as a salt.

Columns and labels:
[1] = tested on: maximal electroshock seizures; assay: Maximal electroshock seizure (MES) test, rat, p.o.; type: in vivo, rat (Sprague-Dawley); details: for Class in the MES Test: Table 7, titled MES Test, Rat; for responders at 30 mg/kg: several time points over a 4 hour period, read-out: Percent Protection at 30 mg/kg, in the MES test
From the text: The hydrazones, hydrazines and semicarbazones derived from pyridyl ketones and the resulting orally effective anticonvulsant compositions of this invention are useful in the treatment of convulsive disorders. […] A series of hydrazones, hydrazines and semicarbazones derived from pyridyl ketones of this invention has been evaluated for anticonvulsant activity by the intraperitoneal (i.p.) and by the oral (p.o.) route using two standard seizure models in the mouse and in the rat, the maximal electroshock seizure (MES) test and the subcutaneous pentylenetetrazole (Metrazole) seizure threshold (scMet) test. […] In addition, the compounds are evaluated in a new model, the threshold tonic extension (TTE) model. […] Thus active compounds that may be missed in the MES and […] the mouse, i.p., can be detected in the TTE test. The Maximal Electroshock Seizure Test (MES): Maximal electroshock seizures are elicited with a 60 Hz alternating current of 50 mA intensity in mice and about 150 mA intensity in rats (5-7 times that necessary to elicit minimal electroshock seizures), delivered for 0.2 sec via corneal electrodes. A drop of 0.9% saline is instilled in the eye prior to application of the electrodes in order to […]. Abolition of the hind limb tonic extension component of the seizure is defined as protection and results are expressed as number of animals protected/number of animals tested. […] This species will be the subject of the complete anticonvulsant quantification test evaluation as described above, but after oral (gavage) administration of the candidate compound.

[2] = tested on: maximal electroshock seizures; assay: Maximal electroshock seizure (MES) test, mouse, i.p.; type: in vivo, mouse (male Carworth Farms #1); details: for ASP Group Classification, MES Test: mouse, 30, 100 and 300 mg/kg
From the text: The hydrazones, hydrazines and semicarbazones derived from pyridyl ketones and the resulting orally effective anticonvulsant compositions of this invention are useful in the treatment of convulsive disorders. […] A series of hydrazones, hydrazines and semicarbazones derived from pyridyl ketones of this invention has been evaluated for anticonvulsant activity by the intraperitoneal (i.p.) and by the oral (p.o.) route using two standard seizure models in the mouse and in the rat, the maximal electroshock seizure (MES) test and the subcutaneous pentylenetetrazole (Metrazole) seizure threshold (scMet) test. […] In addition, the compounds are evaluated in a new model, the threshold tonic extension (TTE) model. […] Thus active compounds that may be missed in the MES and […] the mouse, i.p., can be detected in the TTE test. Based on the screening results, the compounds are placed in one of three categories. […] Class II compounds show anticonvulsant activity at doses greater than 100 mg/kg or show activity at 100 mg/kg which is not reinforced by similar activity at 300 mg/kg. […] The Class I compounds are those which are most promising as anticonvulsants. […] In mice. i.p.: All compounds are emulsified in 0.5% methylcellulose. The solvent has been tested for anticonvulsant and toxic effects and found to introduce no significant bias into the testing of anticonvulsant activity. The compounds are administered intraperitoneally in a volume of 0.01 ml/gm to male Carworth Farms #1 mice weighing about 20 gm. All compounds are tested at least at three dose levels (30, 100 and 300 mg/kg) at 30 minutes and 4 hours after their administration. The Maximal Electroshock Seizure Test (MES): Maximal electroshock seizures are elicited with a 60 Hz alternating current of 50 mA intensity in mice and about 150 mA intensity in rats (5-7 times that necessary to elicit minimal electroshock seizures), delivered for 0.2 sec via corneal electrodes. A drop of 0.9% saline is instilled in the eye prior to application of the electrodes in order to […]. Abolition of the hind limb tonic extension component of the seizure is defined as protection and results are expressed as number of animals protected/number of animals tested. Anticonvulsant Quantification in Mice, i.p.: The ED50 values are determined in the MES, scMet and rotorod ataxia test.

TTE seizure = assay: Threshold tonic extension (TTE) test, mouse, i.p.; type: in vivo; details: mouse, 100 mg/kg
From the text: The hydrazones, hydrazines and semicarbazones derived from pyridyl ketones and the resulting orally effective anticonvulsant compositions of this invention are useful in the treatment of convulsive disorders. […] A series of hydrazones, hydrazines and semicarbazones derived from pyridyl ketones of this invention has been evaluated for anticonvulsant activity by the intraperitoneal (i.p.) and by the oral (p.o.) route using two standard seizure models in the mouse and in the rat, the maximal electroshock seizure (MES) test and the subcutaneous pentylenetetrazole (Metrazole) seizure threshold (scMet) test. […] In addition, the compounds are evaluated in a new model, the threshold tonic extension (TTE) model. […] Thus active compounds that may be missed in the MES and scMet tests in the mouse, i.p., can be detected in the TTE test.
The Threshold Tonic Extension (TTE) Test: The TTE test (Piredda et al., 1985) is a clinically nonselective, electroconvulsive seizure model that identifies compounds that raise seizure threshold as well as those that prevent seizure spread. […] The test is similar to the MES screen but uses a lower level of electrical current. The lower current makes the TTE test more sensitive but less discriminate than the MES screen. This ability makes the model attractive because it allows us to identify compounds that may be missed by our standard identification screen.
Twenty mice are pretreated intraperitoneally with 100 mg/kg of the test substance. At several time intervals (1/4, 1/2, 1, 2, and 4 hours) post treatment with the test drug, four mice at each time point are challenged with 12.5 mA of electrical current for 0.2 seconds via corneal electrodes. This produces a TTE seizure in the animals (Woodbury and Davenport, 1952).
For each time interval results are expressed as a ratio of the number of animals protected over the number tested. […] The positives may represent compounds acting by novel mechanisms.

in vivo = assay: in vivo; parameters: species or system mouse (male Carworth Farms #1); details: mouse, ip
Method: Neurotoxicity is determined by the rotorod ataxia test in mice and by the positional sense test and gait and stance test in the rat.
Neurotoxicity is evaluated in mice by the rotorod ataxia test. The animal is placed on a wooden rod of 1 and 1/8" diameter rotating at 6 rpm. Normal mice can remain on a rod rotating at this speed indefinitely.
Anticonvulsant Quantification in Mice, i.p.: The ED50 values are determined in the MES, scMet and rotorod ataxia test.

With CC(Nc1cccc(Cl)c1)c1cccnc1 (centres unmarked) [AAP 3-Pyridyl CH3 3-Cl, reference compound] the “Class in the MES Test” value [1] was “II (show anticonvulsant activity at doses greater than 100 mg/kg or show activity at 100 mg/kg which is not reinforced by similar activity at 300 mg/kg)”.

For CC(Nc1ccc(Cl)cc1)c1cccnc1 (centres unmarked) [AAP 3-Pyridyl CH3 4-Cl, reference compound], the “protection at 50 mg/kg, MES Test” value ([1]; rat, 50 mg/kg, Table 7) was 0-75%.

CC(Nc1ccc(Cl)c(Cl)c1)c1ccncc1 (centres unmarked) [AAP 4-Pyridyl CH3 3,4-diCl, reference compound] showed an ED50 ([1]; po, rat, Table 7, read-out: Anticonvulsant Efficacy (ED50, mg/kg) in the MES Test) of 29.7 mg/kg.

In the case of Clc1ccc(NC(c2ccccc2)c2ccncc2)cc1 (centres unmarked) [AAP 4-Pyridyl Ph 4-Cl, reference compound], the “Class in the MES Test” value [1] is reported as “III (Those failing to demonstrate anticonvulsant activity at doses up to 300 mg/kg are considered inactive)”.

In the case of CC(=NNc1ccc(Cl)cc1)c1ccncc1 [Compound 2, Methyl 4-pyridyl ketone 4-chlorophenyl hydrazone], the “ASP Group Classification, MES Test” value [2] is reported as “I (They demonstrate anticonvulsant activity in either the MES test or the scMet test, or both at doses of 100 mg/kg or 30 mg/kg without signs of neurological deficit and thus have an estimated protective index of greater than 1)” and the responders at 30 mg/kg ([1]; po, rat, 30 mg/kg) is reported as 50 to 75%.

For CC(=NNc1cccc(Cl)c1)c1cccnc1 [Compound 6, Methyl 3-pyridyl ketone 3-chlorophenylhydrazone], the “ASP Group Classification, MES Test” value [2] was “I (They demonstrate anticonvulsant activity in either the MES test or the scMet test, or both at doses of 100 mg/kg or 30 mg/kg without signs of neurological deficit and thus have an estimated protective index of greater than 1)” and the “Class in the MES Test” value [1] was “I (They demonstrate anticonvulsant activity in either the MES test or the scMet test, or both at doses of 100 mg/kg or 30 mg/kg without signs of neurological deficit and thus have an estimated protective index of greater than 1)”.

With CCC(=NNc1ccc(Cl)c(Cl)c1)c1ccncc1 [Compound 7, Ethyl 4-pyridyl ketone 3,4-dichlorophenylhydrazone] the “ASP Group Classification, MES Test” value [2] was “III (Those failing to demonstrate anticonvulsant activity at doses up to 300 mg/kg are considered inactive)”, the “ASP Group Classification, TTE Test” value (TTE seizure) was “I (They demonstrate anticonvulsant activity in either the MES test or the scMet test, or both at doses of 100 mg/kg or 30 mg/kg without signs of neurological deficit and thus have an estimated protective index of greater than 1)” and the “TTE Test (Percent Protection)” value (TTE seizure) was 25%.

In the case of CCC(=NNc1ccc(Cl)cc1)c1ccncc1 [Compound 8, Ethyl 4-pyridyl ketone 4-chlorophenylhydrazone], the “ASP Group Classification, MES Test” value [2] is reported as “I (They demonstrate anticonvulsant activity in either the MES test or the scMet test, or both at doses of 100 mg/kg or 30 mg/kg without signs of neurological deficit and thus have an estimated protective index of greater than 1)”.

With Clc1ccc(NN=C(c2ccccc2)c2ccncc2)cc1Cl [Compound 9, Phenyl 4-pyridyl ketone 3,4-dichlorophenylhydrazone] the “ASP Group Classification, MES Test” value [2] was “III (Those failing to demonstrate anticonvulsant activity at doses up to 300 mg/kg are considered inactive)”, the “ASP Group Classification, TTE Test” value (TTE seizure) was “I (They demonstrate anticonvulsant activity in either the MES test or the scMet test, or both at doses of 100 mg/kg or 30 mg/kg without signs of neurological deficit and thus have an estimated protective index of greater than 1)” and the “TTE Test (Percent Protection)” value (TTE seizure) was 25%.

With Clc1ccc(NN=C(c2ccccc2)c2ccncc2)cc1 [Compound 10, Phenyl 4-pyridyl ketone 4-chlorophenylhydrazone] the “ASP Group Classification, MES Test” value [2] was “I (They demonstrate anticonvulsant activity in either the MES test or the scMet test, or both at doses of 100 mg/kg or 30 mg/kg without signs of neurological deficit and thus have an estimated protective index of greater than 1)” and the “Class in the MES Test” value [1] was “I (They demonstrate anticonvulsant activity in either the MES test or the scMet test, or both at doses of 100 mg/kg or 30 mg/kg without signs of neurological deficit and thus have an estimated protective index of greater than 1)”.

For Clc1cccc(NN=C(c2ccccc2)c2ccncc2)c1 [Compound 11, Phenyl 4-pyridyl ketone 3-chlorophenylhydrazone], the “ASP Group Classification, MES Test” value [2] was “III (Those failing to demonstrate anticonvulsant activity at doses up to 300 mg/kg are considered inactive)” and the “ASP Group Classification, TTE Test” value (TTE seizure) was “I (They demonstrate anticonvulsant activity in either the MES test or the scMet test, or both at doses of 100 mg/kg or 30 mg/kg without signs of neurological deficit and thus have an estimated protective index of greater than 1)”.

With CC(NNc1ccc(Cl)c(Cl)c1)c1cccnc1 (centres unmarked) [Compound 12, 1-(3,4-dichlorophenyl)-2-[1-(3-pyridyl)]ethylhydrazine dihydrochloride] the “ASP Group Classification, MES Test” value [2] was “I (They demonstrate anticonvulsant activity in either the MES test or the scMet test, or both at doses of 100 mg/kg or 30 mg/kg without signs of neurological deficit and thus have an estimated protective index of greater than 1)” and the responders at 30 mg/kg ([1]; po, rat, 30 mg/kg) was 25 to 75%.

With CC(=NNC(N)=O)c1ccncc1 [Compound 13, Methyl 4-pyridyl ketone semicarbazone] the “ASP Group Classification, MES Test” value [2] was “I (They demonstrate anticonvulsant activity in either the MES test or the scMet test, or both at doses of 100 mg/kg or 30 mg/kg without signs of neurological deficit and thus have an estimated protective index of greater than 1)”.

For CC(=NNC(N)=O)c1cccnc1 [Compound 14, Methyl 3-pyridyl ketone semicarbazone], the “ASP Group Classification, MES Test” value [2] was “II (show anticonvulsant activity at doses greater than 100 mg/kg or show activity at 100 mg/kg which is not reinforced by similar activity at 300 mg/kg)”.

In the case of NC(=O)NN=C(c1ccccc1)c1cccnc1 [Compound 16, Phenyl 3-pyridyl ketone semicarbazone], the ED50 ([2]; Mus musculus, ip, mice, Table 5) is reported as 21.8 mg/kg, the “P.I., TD50/ED50, MES” value ([2]; mice, Table 5) is reported as 3.87 and the “ASP Group Classification, MES Test” value [2] is reported as “I (They demonstrate anticonvulsant activity in either the MES test or the scMet test, or both at doses of 100 mg/kg or 30 mg/kg without signs of neurological deficit and thus have an estimated protective index of greater than 1)”. The TD50 (in vivo) was 84.6 mg/kg, the responders at 30 mg/kg ([1]; po, rat, 30 mg/kg) was 75 to 100% and the “protection at 30 mg/kg, MES Test” value ([1]; rat, 30 mg/kg, Table 7) was 75-100%.
